Data published in patent US7151104B2, “Pyrazolopyridines as cyclin dependent kinase inhibitors” (Schering Corporation, priority 2002, dated 2006).

Biological target: T1, Cyclin E/CDK2 (Homo sapiens, UniProt P24941)
T1 construct: The expressed protein was approximately 34 kDa in size; made in house; host or cells: SF9 insect cells (baculovirus co-infection)
Assay: Cyclin E/CDK2 in vitro kinase assay (SPA, 33P-ATP, biotinylated Histone H1 peptide)
Format: biochemical
Conditions: recombinant cyclin E/CDK2 from SF9 cells; 8 point serial dilutions in duplicate; 1 hour at room temperature

Compound: Clc1cnn2c(NCc3cncnc3)cc(-c3ccccc3)cc12
- IC50: 78 nM
